Where two headings read alike, the source gives them in different places.
What was measured:
TGF-β2-induced proteins [1] = assay: Immunocytofluorescence microscopy for CTGF, fibronectin and α-SMA; settings: for staining intensity of TGF-β2-induced proteins (CTGF, α-SMA, fibronectin): samples 5-6 (A-83-01 1.0, 3.0 μM) and 13-14 (SB-431542 3.0, 10.0 μM), 2 ng/ml TGF-β2, 72 hours
Experimental: (§4) In another example, subconjunctival fibroblasts were cultured on 8-well chamber slides. The samples were prepared as in samples 5-6 and 13-16 and incubated for 72 hours. After inhibitor treatment, the fibroblast cultures were fixed with 4% paraformaldehyde or with ice-cold methanol for Alexa Fluor or FITC staining, respectively. After permeabilization, the cells cultures were incubated with polyclonal goat anti-CTGF (1:50, Santa Cruz) followed by Alexa Fluor donkey anti-goat IgG (10 μg/mL, Invitrogen), monoclonal mouse anti-fibronectin (10 μg/mL, Invitrogen) or monoclonal mouse anti-α-SMA (1:400, Sigma) followed by FITC goat anti-mouse IgG (1:100, Jackson ImmunoResearch). The cell cultures were mounted with aqueous mounting media with DAPI and viewed by fluoresence microscopy.
Nuclei were stained with DAPI (blue).

rabbit fibroblasts = assay: Fibroblast morphology by phase contrast microscopy; settings: 5 ng/ml TGF-β2; for TGF-β2-induced morphologic change (myofibroblast-like appearance): sample 6 (A-83-01 3.0 μM), sample 14 (SB-431542 10.0 μM)
Experimental: In another example, rabbit fibroblasts were prepared as in samples 6, 14, 15, and 16 except that 5 ng/ml of TGF-β2 was added to the samples instead of 2 ng/ml.

[2] = system: cultured rabbit subconjunctival fibroblasts; assay: TGF-β2 activity related to wound healing in cultured fibroblasts (overall conclusion); format: cell-based; settings: for cell toxicity: cell cultures prepared with either inhibitor; for TGF-β2 activity related to wound healing: cultured rabbit subconjunctival fibroblasts
Experimental: (§1) Sample fibroblasts were obtained from New Zealand white rabbit eyes. The fibroblasts were derived from the subconjunctival tissues isolated from the eyes of the subjects. The third to fifth passages of cells were maintained in 25 cm^2 flasks using 3 ml of medium composed of Eagle's minimal essential medium, 10% fetal bovine serum, 5% calf serum, essential and nonessential aminoacids, and antibiotics. When the cells reached confluence, they were trypsinized and passaged.
(§2) The fibroblast cultures in 6-well plates were pre-treated with 2 ml of medium including ALK-5 inhibitors at various concentrations, 0.03, 0.1, […], 1.0, 3.0, and 10.0 μM, for one hour, and were additionally treated with
(§3) 2 ng/ml of TGF-β2 (R&D Systems, Minneapolis, Minn.) for up to 72 hours.
Thus, these inhibitors may be used as ocular anti-scarring agents, especially for glaucoma filtration surgery.

TGF-β2 signaling pathway = assay: Western blotting for α-SMA and fibronectin in TGF-β2-treated fibroblasts; format: cell-based, rabbit; settings: incubated 48 to 72 hours; for band intensity for fibronectin and α-SMA compared with samples not treated with the inhibitors: more pronounced with higher concentration; for fibronectin and α-SMA protein expression induced by TGF-B2: rabbit subconjunctival fibroblasts, 2 ng/ml TGF-β2
Experimental: as §1, §2, §3
To test for fibronectin and α-SMA protein expression after the treatment with the respective inhibitors, rabbit subconjunctival fibroblasts, as prepared in samples 1-16, were incubated for 48 to 72 hours. […] Band intensity for both proteins was reduced in A-83-01 and SB-431542 treated samples compared with the bands of those samples not treated with the inhibitors. The reduction in protein levels is more pronounced with a higher concentration of the inhibitors. The blots were also probed for β-actin to control for equal protein loading.
Proteins in the cell lysates (20 μg/lane) were resolved on a 10% sodium dodecyl sulfate (SDS)-polyacrylamide gel. The proteins were transferred to nitrocellulose. After blocking with 1% bovine serum albumin, the membranes were probed with monoclonal mouse anti-α-SMA (1:9,000) followed by HRP-conjugated goat anti-mouse IgG (1:150,000; Jackson), or monoclonal mouse anti-fibronectin (1:1,000) followed by HRP-conjugated goat anti-mouse IgG (1:10,000). Signals were detected by enhanced chemiluminescense.

TGF-β2-induced proteins [3] = system: TGF-β2-induced proteins
Experimental: as §4
Nuclei were stained with DAPI (blue).

Row | Structure (SMILES) | staining intensity of TGF-β2-induced proteins (CTGF, α-SMA, fibronectin) (TGF-β2-induced proteins [1]) | cell death (TGF-β2-induced proteins [1]; samples 5-6 and 13-14, 72 hours) | cell death (rabbit fibroblasts; sample 6 (3.0 μM), sample 14 (10.0 μM)) | TGF-β2-induced morphologic change (myofibroblast-like appearance) (rabbit fibroblasts) | cell toxicity [2] | TGF-β2 activity related to wound healing [2] | band intensity for fibronectin and α-SMA compared with samples not treated with the inhibitors (TGF-β2 signaling pathway) | fibronectin and α-SMA protein expression induced by TGF-B2 (TGF-β2 signaling pathway) | cell death (TGF-β2-induced proteins [3])
1 | Cc1cccc(-c2nn(C(=S)Nc3ccccc3)cc2-c2ccnc3ccccc23)n1 [A-83-01] | greatly reduced | No obvious cell death | No obvious cell death | seemed to be averted | No obvious cell toxicity | effectively block | reduced | effectively inhibited | –
2 | NC(=O)c1ccc(-c2nc(-c3ccc4c(c3)OCO4)c(-c3ccccn3)[nH]2)cc1 [SB-431542] | greatly reduced | – | – | seemed to be averted | No obvious cell toxicity | effectively block | reduced | effectively inhibited | No obvious cell death

Reference: patent publication US20100087486A1, “METHODS FOR USING TGF-B RECEPTOR INHIBITORS OR ACTIVIN-LIKE KINASE (ALK) 5 INHIBITORS A-83-01 AND SB-431542 TO TREAT EYE DISEASE AND WOUND HEALING CONDITIONS” (priority 2008, published 2010)
